According to patent publication US20260315434A1, “USE OF GUAIACOL SESQUITERPENE LACTONE DERIVATIVES” (NANJING UNIVERSITY OF CHINESE MEDICINE, priority 2023, published 2026):
Where two headings read alike, the source gives them in different places. Marks after values point to notes of the source that are not given here.

Legend:
T cells / MDSCs = experiment: Promotion of T cell proliferation in a co-culture model of MDSCs and T cells; format: cell-based, mouse; conditions: for activation at 1 µM: Mus musculus, T-cell, 12 h
Outline: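 Bone-marrow MDSCs, after compound treatment, were co-cultured 48 h at 1:1 with CFDA-SE-labelled (10 μM solution), activated splenic T cells. Proliferation of CD3+ T cells was read by flow cytometry.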

Hepa1-6 cells = experiment: Antitumor effect in Hepa1-6 mouse hepatocellular carcinoma subcutaneous xenograft model; format: in vivo, C57BL/6 mice
MDSCs = experiment: Proportion of MDSCs in tumor and spleen of H22 xenograft mice (flow cytometry); format: in vivo, BALB/c mice; conditions: for Spleen MDSCs (%) / Tumor-associated MDSCs (%): 40 μmol/kg/day, oral, 2 weeks, flow cytometry
Method: Once all tumors were dissected, nail-sized tumor pieces were transferred to 1.5 mL Eppendorf tubes and minced with scissors. Transfer the minced tumor tissue suspension to a 15 mL centrifuge tube containing 3-5 mL of digestive enzymes (Collagenase IV 1 mg/mL, Hyaluronidase 1 mg/mL, DNase 120 U/mL). Incubate at 200 rpm and 37° C. for 1 hour. After digestion, pass the mixture through a 200-mesh sieve to obtain the tumor cell suspension. Centrifuge the resulting tumor suspension at 1600 rpm for 5 min, aspirate the supernatant, resuspend cells in 1 mL of 1×PBS per tube. Transfer the cell suspension to a 1.5 mL Eppendorf tube, centrifuge at 1600 rpm for 5 min, remove the supernatant, resuspend cells in 100 μL of 1×PBS per tube, add 1 μL of dead/live dye to each tube, mix thoroughly, and incubate at room temperature in the dark for 15 min. […] Position the spleen on a 200-mesh cell strainer. Gently press the spleen using a 10 mL syringe needle. […] Transfer the washed splenocyte suspension into a 15 mL centrifuge tube. Centrifuge at 1600 rpm for 5 min to collect cells. Wash once with 1×PBS. Add 3 mL red blood cell lysis buffer (diluted with ddH2O) to each tube and incubate for 5 min. After lysis, add 10 mL 1×PBS to each tube to terminate lysis. Centrifuge at 1600 rpm for 5 min. Add 1 mL 1×PBS to each 15 mL centrifuge tube, transfer to 1.5 mL EP tubes, and centrifuge at 1600 rpm for 5 min. Add 1 mL 1×PBS to each tube containing stained tumor cells and lysed spleen cells for one wash, centrifuge at 1600 rpm for 5 min, and remove the supernatant. Resuspend tumor cells and spleen cells separately in 100 μL 1×PBS. Add 1 μL FcX™ antibody to each tube and incubate at room temperature in the dark for 10 min. After incubation, sequentially add 1 μL each of CD45, CD11b, Gr1 antibodies. Incubate at 4° C. in the dark for 30 min. After incubation, wash once with 1×PBS, discard the supernatant, resuspend cells in 300 μL 1×PBS, filter the membrane into a flow cytometry tube, and proceed to instrument analysis.

CT26 cells = experiment: Antitumor effect in CT26 colon cancer mouse subcutaneous model; format: in vivo, BALB/c mice; conditions: for Tumor inhibition rate (%) / Tumor weight: 80 μmol/kg/day, CT26
[1] = Conversion (release) of prodrug salts to parent compound in mouse plasma; format: in vitro ADME; conditions: 37 °C; for metabolised at 1 h / metabolised at 2 h / metabolised at 4 h / metabolised at 8 h / metabolised at 12 h: mouse, plasma
Outline: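 Salts (0.6 mg in 250 μL water) were mixed 1:1 with heparinized mouse plasma or HEPES pH 7.4 and incubated at 37 °C. Samples were methanol-quenched and taken at 1–12 h. Parent compound was quantified by C18 HPLC-UV at 210 nm using peak areas.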

[2] = test system: renal injury markers (Ngal, Havcr1) in kidney tissue; experiment: Folic acid-induced acute kidney injury, renal injury marker mRNA; format: in vivo, C57BL/6 mice; parameters: scale not given here; conditions: folic acid acute model
Method: Except for the normal group, all other mice were administered folic acid (250 mg/kg) dissolved in 0.9% NaHCO3 solution via intraperitoneal injection to establish an acute kidney injury model.
(§1) The blood was allowed to stand at room temperature for 2 hours, then centrifuged at 3000 rpm for 20 minutes. Serum was aspirated, aliquoted, and stored at −70° C. for future use. Following blood collection, euthanize mice by cervical dislocation. Perform laparotomy to remove kidneys, dissect out perirenal fat and capsules. […] Paraffin-embedded specimens undergo HE staining; remaining tissue is stored at −70° C. for future use.

[3] = test system: fibrosis-related factors (α-Sma, Col1a1, Tgfb1) in kidney tissue; experiment: UUO chronic kidney injury, renal fibrosis-related factor mRNA; format: in vivo, C57BL/6 mice; parameters: unit not given here; conditions: UUO chronic model
From the text: Chronic Kidney Injury: Mice were randomly divided into five groups. […] Except for the sham-operated mice in the normal group (where only the left ureter was exposed without further manipulation), all other mice underwent unilateral ureteral ligation to establish a chronic kidney injury model as follows: The abdominal skin was disinfected with iodine solution followed by alcohol. An incision was made, and the abdominal layers were dissected sequentially. The left ureter was fully exposed and dissected. A double ligation was performed at the bladder-proximal end of the left ureter using absorbable suture material, followed by closure.
as §1

[4] = compared with solvent control, result in words
[5] = 40 μmol/kg/d oral, 2 weeks, solvent 0.92 ± 1.41

Structure (SMILES)	Release rate (conversion to Compound 1) ([1]; 1 h, 60 min)	Release rate (conversion to Compound 1) ([1]; 2 h, 120 min)	Release rate (conversion to Compound 1) ([1]; 4 h, 240 min)	Release rate (conversion to Compound 1) ([1]; 8 h, 480 min)	Release rate (conversion to Compound 1) ([1]; 12 h, 720 min)	Havcr1 mRNA expression, kidney ([2]; 1 mg/kg oral, 1 mg/kg)	Ngal mRNA expression, kidney ([2]; 1 mg/kg oral, 1 mg/kg)	Col1a1 mRNA expression, kidney ([3]; 1 mg/kg oral, 1 mg/kg)	Tgfb1 mRNA expression, kidney ([3]; 1 mg/kg oral, 1 mg/kg)	α-Sma mRNA expression, kidney ([3]; 1 mg/kg oral, 1 mg/kg)	Spleen MDSCs (%) (MDSCs)	Tumor-associated MDSCs (%) (MDSCs)	proportion of MDSCs in tumor tissues and spleens (MDSCs; [4])	Tumor inhibition rate (%) (CT26 cells; oral, 3 weeks)	Tumor weight (CT26 cells; oral, 3 weeks)	tumor-inhibiting effect, CT26 (CT26 cells; oral, 3 weeks, result in words)	Havcr1 mRNA expression, kidney ([2]; 0.1 mg/kg oral)	Ngal mRNA expression, kidney ([2]; 0.1 mg/kg oral)	Col1a1 mRNA expression, kidney ([3]; 0.1 mg/kg oral)	α-Sma mRNA expression, kidney ([3]; 0.1 mg/kg oral)	other results
C=C1C(=O)O[C@@H]2[C@H]3C(C)=CC[C@@]34O[C@@]4(C)CC[C@@H]12 [Arg, Arglabin, reference compound]																					activation at 1 µM (T cells / MDSCs; read-out: T-cell proliferation rate (%)): > 40%; Tumor weight (Hepa1-6 cells; mouse, in vivo, po): 0.04 ± 0.03 g; proportion of MDSCs in tumor tissues and spleens (MDSCs; mouse, in vivo): significantly reduced; tumor-inhibiting effect, CT26 (CT26 cells; mouse, in vivo, po): tumor-inhibiting effects
CN(C)C[C@@H]1C(=O)O[C@H]2[C@H]1CC[C@@]1(C)C[C@]13CC[C@@](C)(O)[C@H]23 [Compound 20]	7.3%	12.9%	28.6%	46.8%	62.9%	62.86 ± 12.20	13.05 ± 1.82	7.30 ± 0.90	1.44 ± 0.21	1.26 ± 0.18	23.10 ± 5.35 %	7.86 ± 6.19 %	significantly reduced	43.36%*	4.62 ± 1.29 g	tumor-inhibiting effects					
CN(C)C[C@@H]1C(=O)O[C@H]2[C@H]1CC[C@@]1(C)C[C@]13CC[C@@](C)(O)[C@H]23 [Compound 21]	5.4%	10.7%	17.9%	39.3%	55.4%	83.11 ± 16.85	13.08 ± 2.41	8.27 ± 1.15	1.53 ± 0.14	1.39 ± 0.04							170.08 ± 33.10	25.75 ± 2.80	11.79 ± 1.18	2.02 ± 0.39	Tgfb1 mRNA expression, kidney ([3]; 0.1 mg/kg oral): 1.76 ± 0.05; T-cell proliferation rate (%) (T cells / MDSCs; 1 μM, MDSCs treated 12 hours, co-culture of MDSCs and T cells, compared to the control group): + (T-cell proliferation rate within the 0-20% range compared to the control group)
CC1=C2CC[C@@](C)(OC(=O)N3CCCCC3)[C@@H]2[C@H]2OC(=O)[C@@H](CN(C)C)[C@@H]2CC1 [Compound 102]											30.37 ± 9.84 %	32.11 ± 6.33 %	significantly reduced								metabolised at 1 h ([1]; 1 h, read-out: Release rate (conversion to Compound 83)): 6.6%; metabolised at 2 h ([1]; 2 h, read-out: Release rate (conversion to Compound 83)): 14%; metabolised at 4 h ([1]; 4 h, read-out: Release rate (conversion to Compound 83)): 26%; metabolised at 8 h ([1]; 8 h, read-out: Release rate (conversion to Compound 83)): 42.4%; metabolised at 12 h ([1]; 12 h, read-out: Release rate (conversion to Compound 83)): 47.8%; Tumor Inhibition Rate (Hepa1-6 cells; 40 μmol/kg/d oral, 2 weeks): 96.67%; Tumor weight (Hepa1-6 cells; [5]): 0.03 ± 0.04 g
CC1=C2CC[C@@](C)(OC(=O)N3CCCC3)[C@@H]2[C@H]2OC(=O)[C@@H](CN3CCCC3)[C@@H]2CC1 [Compound 103]											24.33 ± 5.02 %	10.62 ± 6.50 %	significantly reduced	39.72%*	4.86 ± 0.72 g	tumor-inhibiting effects	452.14 ± 212.69	148.49 ± 116.61	10.58 ± 2.78	6.33 ± 0.96	metabolised at 1 h ([1]; 1 h, read-out: Release rate (conversion to Compound 82)): 7.2%; metabolised at 2 h ([1]; 2 h, read-out: Release rate (conversion to Compound 82)): 13.2%; metabolised at 4 h ([1]; 4 h, read-out: Release rate (conversion to Compound 82)): 26.8%; metabolised at 8 h ([1]; 8 h, read-out: Release rate (conversion to Compound 82)): 44.5%; metabolised at 12 h ([1]; 12 h, read-out: Release rate (conversion to Compound 82)): 53.4%; Havcr1 mRNA expression, kidney ([2]; 1 mg/kg oral): 415.10 ± 120.96; Ngal mRNA expression, kidney ([2]; 1 mg/kg oral): 85.57 ± 27.78; Havcr1 mRNA expression, kidney ([2]; 10 mg/kg oral): 331.69 ± 98.67; Ngal mRNA expression, kidney ([2]; 10 mg/kg oral): 69.68 ± 25.32; Col1a1 mRNA expression, kidney ([3]; 1 mg/kg oral): 11.02 ± 2.81; α-Sma mRNA expression, kidney ([3]; 1 mg/kg oral): 6.01 ± 1.21; Col1a1 mRNA expression, kidney ([3]; 10 mg/kg oral): 9.31 ± 2.28; α-Sma mRNA expression, kidney ([3]; 10 mg/kg oral): 4.86 ± 0.99; activation at 1 µM (T cells / MDSCs; read-out: T-cell proliferation rate (%), 1 μM, MDSCs treated 12 hours, co-culture of MDSCs and T cells, compared to the control group): 20 to 40%; Tumor Inhibition Rate (Hepa1-6 cells; 40 μmol/kg/d oral, 2 weeks): 96.22%; Tumor weight (Hepa1-6 cells; [5]): 0.03 ± 0.06 g
